Where “and” joins values, the source holds several entries; their conditions need not be identical. Equal entries are not always repeated.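 All cell lines were grown in 96-well plates and treated with compound for 48 hours. GI50: concentration for 50% inhibition of growth. TGI: concentration producing complete growth inhibition.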
Experiments:
Test in all cases: DTP human tumour cell line panel, 48 h
[1] = system: UACC-257 melanoma
[2] = system: NCI-H226 lung
[3] = system: NCI-H23 lung
[4] = system: SNB-75 CNS
[5] = system: OVCAR-8 ovarian
[6] = system: UO-31 renal
[7] = system: SF-295 CNS
[8] = system: MALME-3M melanoma
[9] = system: LOX IMVI melanoma
[10] = system: SR leukemia
[11] = system: OVCAR-4 ovarian
[12] = system: M14 melanoma
[13] = system: NCI-H522 lung
[14] = system: HCC-2998 colon
[15] = system: CCRF-CEM leukemia
[16] = system: BT-549 breast
[17] = system: HL-60(TB) leukemia
[18] = system: DU-145 prostate
[19] = system: MCF7 breast

SMILES	TGI [1]	TGI [2]	TGI [3]	TGI [4]	TGI [5]	TGI [6]	TGI [7]	TGI [8]	TGI [9]	TGI [10]	TGI [11]	TGI [12]	TGI [13]	TGI [14]	TGI [15]	TGI [16]	TGI [17]	TGI [18]	TGI [19]	GI50 [4]
COC1=CC(=O)C2[C@H]3Cc4ccccc4[C@H]3C2(C)C1=O (stereo partly drawn)	> 100 µM	> 100 µM	> 100 µM	> 100 µM	> 100 µM	> 100 µM	> 100 µM	> 100 µM	> 100 µM	> 100 µM	> 100 µM	> 100 µM	> 100 µM	> 100 µM	> 100 µM	–	–	–	–	–
Cn1c(=O)c2c(nc3sc4ncccc4c(=O)n32)n(C)c1=O	> 100 µM	> 100 µM	> 100 µM	> 100 µM	> 100 µM	> 100 µM	> 100 µM	–	> 100 µM	–	> 100 µM	> 100 µM	–	> 100 µM	> 100 µM	> 100 µM	> 100 µM	> 100 µM	> 100 µM	–
COc1cc(OC)nc(NC(=O)NS(=O)(=O)c2cccc3ncn(C)c(=O)c23)n1	> 100 µM	> 100 µM	> 100 µM	> 100 µM	> 100 µM	> 100 µM	> 100 µM	> 100 µM	> 100 µM	> 100 µM	> 100 µM	> 100 µM	> 100 µM	–	> 100 µM	–	> 100 µM	> 100 µM	> 100 µM	–
CC(C)C(/C=C/c1ccc(Cl)cc1)=N\NC(=S)NN	98.9 µM	93 µM	> 100 µM	91.8 µM	> 100 µM	> 100 µM	> 100 µM	> 100 µM	33.7 µM	–	–	> 100 µM	32.4 µM	> 100 µM	13.7 µM	> 100 µM	30.7 µM	> 100 µM	52.5 µM	–
CN(C)C1COC2Cc3ccccc3C1O2 (stereo not drawn)	> 100 µM	> 100 µM	> 100 µM	83.5 µM and 79.7 µM	> 100 µM	> 100 µM	> 100 µM	> 100 µM	> 100 µM	> 100 µM	> 100 µM	> 100 µM	> 100 µM	> 100 µM	> 100 µM	–	> 100 µM	> 100 µM	> 100 µM	3.16 µM and 11.2 µM
CCOC(=O)c1cc(C2(OC)CCN(Cc3ccccc3)C2=O)c(-c2cc(C)no2)[nH]1 (stereo not drawn)	> 100 µM	–	> 100 µM	> 100 µM	> 100 µM	> 100 µM	> 100 µM	> 100 µM	–	–	> 100 µM	> 100 µM	> 100 µM	> 100 µM	–	> 100 µM	–	> 100 µM	> 100 µM	–
O=C1NCN(c2ccccc2)C12CCN(CCCSc1ccc(F)cc1)CC2	8.21 µM	> 88 µM	97.3 µM	> 86.1 µM	> 100 µM	> 100 µM	> 100 µM	52.7 µM	37.1 µM	> 81.7 µM	> 96.6 µM	21.7 µM	> 100 µM	67.2 µM	> 71.4 µM	–	> 63.6 µM	> 100 µM	> 39.9 µM	–
CC1=NN(c2ccccc2)C(=O)C1C(=O)C(=O)Nc1ccc(C)cc1C (stereo not drawn)	> 100 µM	> 100 µM	> 100 µM	> 100 µM	> 100 µM	> 100 µM	> 100 µM	> 100 µM	> 100 µM	> 100 µM	> 100 µM	> 100 µM	> 100 µM	> 100 µM	> 100 µM	–	> 100 µM	> 100 µM	> 100 µM	–
COc1ccc(-n2nnnc2C2(Nc3ccccc3)CCN(Cc3ccccc3)CC2)cc1	28.9 µM	> 100 µM	57.9 µM	44.7 µM	54.6 µM	38.9 µM	28.9 µM	27.3 µM	24 µM	> 100 µM	> 100 µM	32 µM	–	14 µM	> 100 µM	–	8.14 µM	> 100 µM	23.3 µM	–
CCC(/C=C/c1ccccc1)=N\N=C(\C=C\c1ccccc1)CC	> 100 µM	> 100 µM	> 100 µM	> 100 µM	> 100 µM	> 100 µM	> 100 µM	> 100 µM	> 100 µM	> 100 µM	> 100 µM	> 100 µM	> 100 µM	> 100 µM	> 100 µM	–	> 100 µM	–	–	–
C=CCn1c(=S)sc2c(=O)[nH]cnc21	> 100 µM	–	> 100 µM	> 100 µM	> 100 µM	> 100 µM	> 100 µM	> 100 µM	> 100 µM	> 100 µM	> 100 µM	> 100 µM	> 100 µM	> 100 µM	> 100 µM	–	> 100 µM	–	–	–
N.N.N.N.O=S(=O)([O-])[O-].[Co+3].[OH3+].[OH3+]	> 100 µM	–	> 100 µM	> 100 µM	> 100 µM	> 100 µM	> 100 µM	> 100 µM	> 100 µM	–	> 100 µM	> 100 µM	> 100 µM	–	> 100 µM	–	> 100 µM	–	–	–
CC1OC2OC3C(OCC(O)C3O)OC(=O)[C@]34CCC(C)(C)CC3C3=CCC5[C@@]6(C)C[C@H](O)[C@H](OC7OC(CO)C(O)C(O)C7OC7OC(COC(=O)CC(C)(O)CC(=O)OC1C(O)C2O)C(O)C(O)C7O)[C@@](C)(CO)C6CC[C@@]5(C)[C@]3(C)CC4 (stereo partly drawn)	2.64 µM	5.19 µM	3.08 µM	2.89 µM	3.1 µM	2.52 µM	3.1 µM	–	2.91 µM	–	3.15 µM	2.76 µM	3.08 µM	2.63 µM	–	2.82 µM	2.87 µM	3.02 µM	15.2 µM	–
Cn1c(C2CC(C)(C)c3c2c2ccccc2n3C)cc2ccccc21 (stereo not drawn)	> 304 µM	> 304 µM	> 304 µM	–	> 304 µM	–	> 304 µM	> 304 µM	> 304 µM	> 304 µM	–	–	> 304 µM	> 304 µM	> 304 µM	–	> 304 µM	–	–	–
